Test results: paper PMC10247784, “Physiological activation of human and mouse bitter taste receptors by bile acids” (Communications Biology, 2023)
Several values for one entry are separate records, joined by “and”; a condition that tells them apart may be missing. Equal entries are not always repeated.

Target: T1, human TAS2R1 (Homo sapiens, UniProt Q9NYW7)
T1 construct: expressed in transfected cells; host or cells: HEK293T-Gα16gust44
T1 sequence (Q9NYW7 1-299): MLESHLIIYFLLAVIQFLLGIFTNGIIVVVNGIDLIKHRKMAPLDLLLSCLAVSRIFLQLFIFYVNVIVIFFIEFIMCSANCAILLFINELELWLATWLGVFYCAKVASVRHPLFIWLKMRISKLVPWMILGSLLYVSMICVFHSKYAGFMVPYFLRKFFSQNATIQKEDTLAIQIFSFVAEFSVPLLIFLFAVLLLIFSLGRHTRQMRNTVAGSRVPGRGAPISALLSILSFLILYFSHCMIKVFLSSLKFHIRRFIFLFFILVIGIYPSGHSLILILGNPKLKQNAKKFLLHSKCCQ
Assay: Calcium imaging assay (FLIPR), HEK293T-Gα16gust44 cells transfected with human TAS2R1
Type: cell-based
Protocol: This set of bile acids was chosen because of their commercial availability in high purities, their diversity within the class of bile acids and their previous detection and quantitation in human blood. Stock solutions were prepared in DMSO.
As basal growth medium for the HEK293T-Gα16gust44 cell line[17],[59] served Dulbecco’s modified eagle medium (DMEM) (Thermo Fisher Scientific, Darmstadt, Germany) supplemented with 10 % fetal bovine serum (Sigma-Aldrich, Steinheim, Germany), 2 mM L-glutamine (Sigma-Aldrich, Steinheim, Germany), 100 units/ml penicillin (Sigma Aldrich, Steinheim, Germany) and 100 µg/ml streptomycin (Sigma Aldrich, Steinheim, Germany). Growth conditions were 37 °C, 5 % CO2 and saturated air-humidity[60].
HEK293T-Gα16gust44 cells were seeded on poly-D-lysine (10 µg/ml) coated 96-well plates to reach a confluence of 40-60 % the next day. For transient transfection 150 ng of plasmid DNA containing the receptor of interest and 0.3 µl lipofectamine 2000 (Thermo Fisher Scientific, Darmstadt, Germany) per well were used and transfection took place according to the manual of lipofectamine 2000. […] The empty vector DNA (mock) was transfected as negative control[14],[41].
Cells were loaded using the calcium-sensitive fluorescent dye Fluo-4-AM (Abcam, Cambridge, Great Britain) in the presence of 2.5 mM probenecid (Sigma-Aldrich, Steinheim, Germany) the day after transfection[13],[41]. 1 h after loading, cells were washed with C1 buffer using a BioTek Cell Washer, incubated in the dark for half an hour and washed again. For automated agonist application and measurement of fluorescence changes, a FLIPR^TETRA device (Molecular Devices, San José, United States) was used. Viability of cells was tested by application of 100 nM Somatostatin 14 (Bachem, Bubendorf, Switzerland)[42].
Measured data were negative control corrected by subtracting the signal of the mock-transfected cells and exported to Microsoft Excel using the FLIPR software ScreenWorks 4.2. In Microsoft Excel software, standardization of maximum fluorescence intensities to the basal fluorescence and normalization to the buffer-only control was done to calculate the relative fluorescence changes (ΔF/F).
Initial screening experiments performed in duplicate wells were confirmed by at least one replication and representative traces were selected for display. All dose-response relationships were determined by three independent experiments (biological replicates) performed in duplicates (technical replicates). Threshold concentrations, defined as lowest substance concentrations leading to statistically significant elevated fluorescence changes in receptor-transfected cells compared with empty vector-transfected cells, were determined using SigmaPlot with Student’s t-test to evaluate statistical significance (p < 0.01).

Efficacy = maximal amplitude (ΔF/F) (TAS2R1, bile acids, mean): 0.1118
Efficacy (maximal amplitude ΔF/F), individual data points (TAS2R1, bile acids, single replicates, listed as CDCA): 0.09822 and 0.1595 and 0.07759
RLU (Time 0 s): 0 RLU
RLU (Time 2.015 s): 19.0362 RLU
RLU (Time 4.015 s): 1.217 RLU
RLU (Time 6.015 s): -17.015 RLU
RLU (Time 8.015 s): -2.669 RLU
RLU (Time 12.015 s): 20.3444 RLU
RLU (Time 14.015 s): 20.4897 RLU
RLU (Time 16.015 s): 20.4897 RLU
RLU (Time 18.015 s): 0.1896 RLU
RLU (Time 18.796 s): 35.4441 RLU
RLU (Time 20.796 s): 34.972 RLU
RLU (Time 22.796 s): 66.6032 RLU
RLU (Time 24.796 s): 169.759 RLU
RLU (Time 26.796 s): 276.637 RLU
RLU (Time 28.796 s): 430.728 RLU
RLU (Time 30.796 s): 521.85 RLU
RLU (Time 32.796 s): 667.246 RLU
RLU (Time 34.796 s): 744.49 RLU
RLU (Time 36.796 s): 777.672 RLU
RLU (Time 38.796 s): 835.786 RLU
RLU (Time 40.796 s): 853.586 RLU
RLU (Time 42.796 s): 876.11 RLU
RLU (Time 44.796 s): 905.241 RLU
RLU (Time 46.796 s): 902.191 RLU
RLU (Time 48.796 s): 919.121 RLU
RLU (Time 50.796 s): 927.172 RLU
RLU (Time 52.796 s): 893.665 RLU
RLU (Time 54.796 s): 936.083 RLU
RLU (Time 56.796 s): 944.124 RLU
RLU (Time 58.796 s): 915.714 RLU
RLU (Time 60.796 s): 876.524 RLU
RLU (Time 62.796 s): 877.876 RLU
RLU (Time 64.796 s): 906.896 RLU
RLU (Time 66.796 s): 861.974 RLU
RLU (Time 68.796 s): 872.092 RLU
RLU (Time 70.796 s): 871.317 RLU
RLU (Time 72.796 s): 854.469 RLU
RLU (Time 74.796 s): 844.188 RLU
RLU (Time 76.796 s): 841.862 RLU
RLU (Time 78.796 s): 815.084 RLU
RLU (Time 80.796 s): 833.544 RLU
RLU (Time 82.796 s): 792.555 RLU
RLU (Time 84.796 s): 783.457 RLU
RLU (Time 86.796 s): 757.585 RLU
RLU (Time 88.796 s): 790.002 RLU
RLU (Time 90.796 s): 748.006 RLU
RLU (Time 92.796 s): 752.186 RLU
RLU (Time 94.796 s): 735.827 RLU
RLU (Time 96.796 s): 731.254 RLU
RLU (Time 98.796 s): 711.692 RLU
RLU (Time 100.796 s): 698.367 RLU
RLU (Time 102.796 s): 713.847 RLU
RLU (Time 104.796 s): 673.465 RLU
RLU (Time 106.796 s): 693.426 RLU
RLU (Time 108.796 s): 681.535 RLU
RLU (Time 110.796 s): 647.896 RLU
RLU (Time 112.796 s): 643.349 RLU
RLU (Time 114.796 s): 607.76 RLU
RLU (Time 116.796 s): 609.573 RLU
RLU (Time 118.796 s): 614.947 RLU
RLU (Time 120.796 s): 582.22 RLU
RLU (Time 122.796 s): 589.185 RLU
RLU (Time 124.796 s): 584.345 RLU
RLU (Time 126.796 s): 601.503 RLU
RLU (Time 128.796 s): 551.854 RLU
RLU (Time 130.796 s): 581.558 RLU
RLU (Time 132.796 s): 570.089 RLU
RLU (Time 134.796 s): 541.966 RLU
RLU (Time 136.796 s): 537.391 RLU
RLU (Time 137.562 s): 528.381 RLU
RLU (Time 143.562 s): 528.401 RLU
RLU (Time 149.562 s): 492.752 RLU
RLU (Time 155.562 s): 464.959 RLU
RLU (Time 161.562 s): 428.355 RLU
RLU (Time 167.562 s): 423.067 RLU
RLU (Time 173.562 s): 376.724 RLU
RLU (Time 179.562 s): 392.276 RLU
RLU (Time 185.562 s): 341.893 RLU
RLU (Time 191.562 s): 346.95 RLU
RLU (Time 197.562 s): 320.481 RLU
RLU (Time 203.562 s): 327.574 RLU
RLU (Time 209.562 s): 318.301 RLU
RLU (Time 215.562 s): 277.825 RLU
RLU (Time 221.562 s): 283.821 RLU
RLU (Time 227.562 s): 172.224 RLU
RLU (Time 233.562 s): 155.786 RLU
RLU (Time 239.562 s): 141.722 RLU
RLU (Time 245.562 s): 124.55 RLU
RLU (Time 293.562 s): 126.733 RLU
RLU (Time 299.562 s): 134.725 RLU
RLU (calcium trace, sheet TAS2R1, Time 305.562 s): 138.341 RLU
RLU (calcium trace, sheet TAS2R1, Time 311.562 s): 138.414 RLU
RLU (calcium trace, sheet TAS2R1, Time 317.562 s): 144.044 RLU
RLU (calcium trace, sheet TAS2R1, Time 323.562 s): 138.244 RLU
RLU (calcium trace, sheet TAS2R1, Time 329.562 s): 121.3 RLU
RLU (calcium trace, sheet TAS2R1, Time 335.562 s): 104.786 RLU
RLU (calcium trace, sheet TAS2R1, Time 341.562 s): 124.793 RLU
RLU (calcium trace, sheet TAS2R1, Time 347.562 s): 124.739 RLU
RLU (calcium trace, sheet TAS2R1, Time 353.562 s): 136.304 RLU
RLU (calcium trace, sheet TAS2R1, Time 359.562 s): 146.172 RLU
Δ F/F (conc. 0,01 mM, TAS2R1): 0.1118
Δ F/F (conc. 0,00003 mM, TAS2R1): -0.002448
Δ F/F (conc. 0,0001 mM, TAS2R1): -0.01316
Δ F/F (conc. 0,0003 mM, TAS2R1): -0.003718
Δ F/F (conc. 0,001 mM, TAS2R1): 0.01001
Δ F/F (conc. 0,003 mM, TAS2R1): 0.03254
Activation threshold concentration TAS2R1 (lowest concentration with significantly increased fluorescence vs empty vector (p < 0.01)): 3 µM and 3.00 µM
Receptor response TAS2R1 (screening): activated
SMILES: C[C@H](CCC(=O)O)[C@H]1CC[C@H]2[C@@H]3[C@H](O)C[C@@H]4C[C@H](O)CC[C@]4(C)[C@H]3CC[C@]12C [Chenodeoxycholic Acid, chenodeoxycholic acid]
